Results taken from patent publication US7547687B2, “Therapeutic treatment methods” (priority 2002, dated 2009).

Tested on: U937 human promonocytic leukemia cells
Test: Microarray analysis of transcript levels in PMA-treated U937 cells exposed to BrEA
Type: cell-based
Conditions: for Ratio of BrEA treated cells compared to control cells (transcript level): 10 μM BrEA, PMA-treated U937 cells
From the text: Modulation of transcription. The effect of 16α-bromoepiandrosterone (“BrEA”) on transcript levels in cells in vitro was studied using a microarray to allow simultaneous monitoring of the expression of many genes to allow detailed analysis of the molecular pathways involved in biological responses to the compound.
In general, microarray technology works by covalently linking short DNA sequences that are complementary to the transcripts of many different genes on a single slide or array chip. mRNAs from test and control samples are generated and labeled with one or more colored fluorescent dyes or probes. The probes are hybridized with the array, which is then scanned by laser. The color and intensity of the fluorescent signal at each spot denotes relative expression level of each gene. The capacity of other F1Cs described herein, e.g., a F1C in compound group 1, 2, 3, 4 or 5, to modulate gene expression is characterized in a similar manner.
The array used in the experiment described below, contained about 12,000 known genes. The experiment used U937 human promonocytic leukemia cells that differentiate to monocyte/macrophage cells in the presence of phorbol-12-myristate-13-acetate (“PMA”). The U937 cells were PMA treated and then exposed to BrEA for 1 hr, 2 hrs, or 4 hrs, followed by bacterial lipopolysaccharide (“LPS”) stimulation for 1 hr, 2 hrs or 4 hrs. The level of transcripts of the genes on the array was measured at the time points using RNA prepared from BrEA-treated and control (no BrEA) cells. U937 cells were plated at 1×10^5 cells/mL in the presence of 3 ng/mL PMA (Sigma, Catalog #P-8139) for 48 hrs. Cells were then treated with either 10 μM BrEA or DMSO (vehicle) for 1 hr, 2 hr, and 4 hrs. At each time point, cells were harvested and total RNA was extracted using Qiagen Rneasy kit according to manufacturer's specification. Total RNA samples were then analyzed by Mergen Ltd. (San Leandro, Calif. www.mergen.com) to perform microarray assay.
For the microarray assay, Dnase-treated total RNA (20 micrograms) was reverse-transcribed using an oligo[(dT)24 T7 promoter]65 primer (consisting of the nucleotide binding sequence for the T7 RNA polymerase followed by 24 thymidine nucleotides). This was followed by second strand synthesis. The reaction mixture was then treated with Rnase I to digest the remaining RNA. The double-stranded cDNA was phenol-chloroform extracted and used as template for in vitro transcription (T7 MEGAscript, Ambion, Inc.) to generate biotin-labeled cRNA probes. These probes were hybridized overnight at 30° C. with continuous agitation to Mergen's ExpressChip HO5 DNA Microarray System (catalog number HO5-001) containing 12,000 genes. The arrays were then washed, and hybridized probes were detected using Mergen's cyanine-3 fluorescent dye-conjugated protein. Chips were imaged using an Affymetrix 417-418 form Affymetrix/Genetic MicroSystems (www.affymetrix.com) and spot intensity was quantitated using ImaGenefrom BioDiscovery Inc. .______
The up-regulation of many of these genes most apparent at 4 hr after treatment, at which time roughly 700 genes were within the above criteria. Some examples are shown in the following list. The ratios given in the list are from BrEA treated cells compared to control cells not treated with BrEA.

SMILES: C[C@]12CC[C@H](O)C[C@@H]1CC[C@@H]1[C@@H]2CC[C@]2(C)C(=O)[C@H](Br)C[C@@H]12 [BrEA, 16α-bromoepiandrosterone]
- number of genes up-regulated (at least two-fold higher than control and significantly higher than background) (4 hr after treatment, array of about 12,000 genes): roughly 700 genes
- transcripts of Cul1 (at 1 hr): increased
- transcripts of EGR1 (at 1 hr): increased
- transcripts of USF1 (at 1 hr): increased
- transcripts of c-Fos (at 1 hr): increased
- Jun B transcript (at 4 hrs): increased
- Ratio of BrEA treated cells compared to control cells (transcript level) (gene ATF3 (Hs.460)): 5.3
- Ratio of BrEA treated cells compared to control cells (transcript level) (gene ATP2B1 (Hs.78546)): 5.4
- Ratio of BrEA treated cells compared to control cells (transcript level) (gene DUSP5 (Hs.2128)): 10.2
- Ratio of BrEA treated cells compared to control cells (transcript level) (gene EHD1 (Hs.155119)): 9.7
- Ratio of BrEA treated cells compared to control cells (transcript level) (gene GG2-1 (Hs.17839)): 10.3
- Ratio of BrEA treated cells compared to control cells (transcript level) (gene GRO2 (Hs.75765)): 9.6
- Ratio of BrEA treated cells compared to control cells (transcript level) (gene GRO3 (Hs.89690)): 124.7
- Ratio of BrEA treated cells compared to control cells (transcript level) (gene HIVEP2 (Hs.75063)): 6.6
- Ratio of BrEA treated cells compared to control cells (transcript level) (gene HSPA1B (Hs.274402)): 7.8
- Ratio of BrEA treated cells compared to control cells (transcript level) (gene IL1B (Hs.126256)): 27.5
- Ratio of BrEA treated cells compared to control cells (transcript level) (gene IL1RN (Hs.81134)): 53.0
- Ratio of BrEA treated cells compared to control cells (transcript level) (gene IL15RA (Hs.12503)): 7.6
- Ratio of BrEA treated cells compared to control cells (transcript level) (gene IL23A (Hs.98309)): 131.8
- Ratio of BrEA treated cells compared to control cells (transcript level) (gene INHBA (Hs.727)): 21.5
- Ratio of BrEA treated cells compared to control cells (transcript level) (gene KIAA1376 (Hs.24684)): 7.7
- Ratio of BrEA treated cells compared to control cells (transcript level) (gene KIAA1726 (Hs.164719)): 6.9
- Ratio of BrEA treated cells compared to control cells (transcript level) (gene LOC51285 (Hs.27018)): 5.9
- Ratio of BrEA treated cells compared to control cells (transcript level) (gene MACS (Hs.75607)): 30.0
- Ratio of BrEA treated cells compared to control cells (transcript level) (gene MAIL (Hs.301183)): 25.5
- Ratio of BrEA treated cells compared to control cells (transcript level) (gene MAP3K5 (Hs.151988)): 7.1
- Ratio of BrEA treated cells compared to control cells (transcript level) (gene MGC5618 (Hs.177781)): 32.0
- Ratio of BrEA treated cells compared to control cells (transcript level) (gene NAF1 (Hs.109281)): 6.4
- Ratio of BrEA treated cells compared to control cells (transcript level) (gene NFKBIA (Hs.81328)): 11.3
- Ratio of BrEA treated cells compared to control cells (transcript level) (gene OLR1 (Hs.77729)): 26.1
- Ratio of BrEA treated cells compared to control cells (transcript level) (gene PBEF (Hs.239138)): 9.2
- Ratio of BrEA treated cells compared to control cells (transcript level) (gene PIM2 (Hs.80205)): 14.5
- Ratio of BrEA treated cells compared to control cells (transcript level) (gene PKIG (Hs.3407)): 5.4
- Ratio of BrEA treated cells compared to control cells (transcript level) (gene PTX3 (Hs.2050)): 1348.4
- Ratio of BrEA treated cells compared to control cells (transcript level) (gene REV3L (Hs.115521)): 5.3
- Ratio of BrEA treated cells compared to control cells (transcript level) (gene RGS16 (Hs.183601)): 29.2
- Ratio of BrEA treated cells compared to control cells (transcript level) (gene RIPK2 (Hs.103755)): 6.6
- Ratio of BrEA treated cells compared to control cells (transcript level) (gene SCYA1 (Hs.72918)): 40.4
- Ratio of BrEA treated cells compared to control cells (transcript level) (gene SCYA4 (Hs.75703)): 67.3
- Ratio of BrEA treated cells compared to control cells (transcript level) (gene SCYA8 (Hs.271387)): 7.0
- Ratio of BrEA treated cells compared to control cells (transcript level) (gene SCYA20 (Hs.75498)): 174.0
- Ratio of BrEA treated cells compared to control cells (transcript level) (gene SERPINE1 (Hs.82085)): 8.4
- Ratio of BrEA treated cells compared to control cells (transcript level) (gene SOD2 (Hs.318885)): 39.7
- Ratio of BrEA treated cells compared to control cells (transcript level) (gene SSI-1 (Hs.50640)): 16.9
- Ratio of BrEA treated cells compared to control cells (transcript level) (gene STAT5A (Hs.167503)): 5.9
- Ratio of BrEA treated cells compared to control cells (transcript level) (gene STK2 (Hs.1087)): 9.0
- Ratio of BrEA treated cells compared to control cells (transcript level) (gene TNFAIP2 (Hs.101382)): 17.4
- Ratio of BrEA treated cells compared to control cells (transcript level) (gene TNFAIP3 (Hs.211600)): 5.1
- Ratio of BrEA treated cells compared to control cells (transcript level) (gene TNFAIP6 (Hs.29352)): 1733.0
- Ratio of BrEA treated cells compared to control cells (transcript level) (gene TRAF1 (Hs.2134)): 15.0
- Ratio of BrEA treated cells compared to control cells (transcript level) (gene TRG@ (Hs.112259)): 17.4
